We go through 48 compounds from US10738033B2, “Trk inhibition” (NantBio, Inc., priority 2017, dated 2020).

Each structure is given as a SMILES string.

T1 sequence (P04629 33-796): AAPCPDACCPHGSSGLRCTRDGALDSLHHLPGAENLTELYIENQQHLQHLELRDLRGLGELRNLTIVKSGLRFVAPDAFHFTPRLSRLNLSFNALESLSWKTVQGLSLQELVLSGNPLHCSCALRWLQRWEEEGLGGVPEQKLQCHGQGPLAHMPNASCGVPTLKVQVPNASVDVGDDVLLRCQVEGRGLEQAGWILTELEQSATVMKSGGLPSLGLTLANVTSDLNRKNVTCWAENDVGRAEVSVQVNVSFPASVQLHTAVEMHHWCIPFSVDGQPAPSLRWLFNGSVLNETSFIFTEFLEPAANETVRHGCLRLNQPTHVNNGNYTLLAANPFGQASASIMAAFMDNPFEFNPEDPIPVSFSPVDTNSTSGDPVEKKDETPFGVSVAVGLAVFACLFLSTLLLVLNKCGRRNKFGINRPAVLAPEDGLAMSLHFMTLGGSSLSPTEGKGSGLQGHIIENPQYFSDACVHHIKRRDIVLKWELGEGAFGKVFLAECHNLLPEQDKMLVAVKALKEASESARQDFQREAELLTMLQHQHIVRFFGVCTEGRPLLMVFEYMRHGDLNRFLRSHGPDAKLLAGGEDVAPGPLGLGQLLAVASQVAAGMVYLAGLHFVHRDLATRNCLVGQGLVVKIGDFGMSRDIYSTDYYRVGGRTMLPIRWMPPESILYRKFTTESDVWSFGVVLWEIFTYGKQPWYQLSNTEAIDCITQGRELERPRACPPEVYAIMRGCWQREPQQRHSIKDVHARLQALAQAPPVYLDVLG

The assay addresses T1, TrkA(h) (Homo sapiens, UniProt P04629).
T1 construct: purchased Millipore (KinaseProfiler service)
Description: KinaseProfiler (Millipore) radiometric kinase inhibition assay. Type of assay: biochemical. The note with it: compound concentration 1 μM. The protocol: The KinaseProfiler™ Service Assay Protocols (Millipore) were used to test the kinase inhibiting activity of novel compounds from this invention. To do this, the buffer composition was as follows: 20 mM MOPS, 1 mM EDTA, 0.01% Brij-35, 5% Glycerol, 0.1% β-mercaptoethanol, 1 mg/mL BSA. Test compounds were initially dissolved in DMSO at the desired concentration, then serially diluted into the kinase assay buffer. In a final reaction volume of 25 μL, TrkA(h) (5-10 mU) is incubated with 8 mM MOPS pH 7.0, 0.2 mM EDTA, 200 μM LRRASLG (Kemptide), 10 mM MgAcetate and [γ^33P-ATP]. The reaction was initiated by the addition of the MgATP mix. After incubation for 40 minute at room temperature, the reaction was stopped by addition of 5 μL of a 3% phosphoric acid solution. 10 μL of the reaction was then spotted onto a P30 filtermat and washed three times for 5 minutes in 50 mM phosphoric acid and once in methanol prior to drying and scintillation counting. Wells containing substrate but no kinase and wells containing a phosphopeptide control were used to set 0% and 100% phosphorylation value, respectively.
For the compound `c1ccc(C2CCCN2c2cc(Nc3cc(C4CC4)[nH]n3)ncn2)cc1` (stereo not drawn) [Example 24], the inhibition (as a rule, the drop in the measured response relative to a control, in per cent) at 1 µM came to 101%.

With `Cc1ccc(C2CCCN2c2cc(Nc3cc(C4CC4)[nH]n3)ncn2)cc1` (stereo not drawn) [Example 25], the inhibition at 1 µM came to 100%.

Regarding `FC(F)(F)c1ccc(C2CCCN2c2cc(Nc3cc(C4CC4)[nH]n3)ncn2)cc1` (stereo not drawn) [Example 26], the inhibition at 1 µM is 98%.

Consider `COc1ccc(C2CCCN2c2cc(Nc3cc(C4CC4)[nH]n3)ncn2)cc1` (stereo not drawn) [Example 27], for which the inhibition at 1 µM was 101%.

For `Fc1ccc(C2CCCN2c2cc(Nc3cc(C4CC4)[nH]n3)ncn2)cc1` (stereo not drawn) [Example 28], the inhibition at 1 µM stood at 103%.

In the case of `Clc1ccc(C2CCCN2c2cc(Nc3cc(C4CC4)[nH]n3)ncn2)cc1` (stereo not drawn) [Example 29], the inhibition at 1 µM is 105%.

For the compound `Cc1cccc(C2CCCN2c2cc(Nc3cc(C4CC4)[nH]n3)ncn2)c1` (stereo not drawn) [Example 30], the inhibition at 1 µM amounted to 97%.

Regarding `FC(F)(F)c1cccc(C2CCCN2c2cc(Nc3cc(C4CC4)[nH]n3)ncn2)c1` (stereo not drawn) [Example 31], the inhibition at 1 µM was found to be 61%.

For `COc1cccc(C2CCCN2c2cc(Nc3cc(C4CC4)[nH]n3)ncn2)c1` (stereo not drawn) [Example 32], the inhibition at 1 µM is 91%.

In the case of `Fc1cccc(C2CCCN2c2cc(Nc3cc(C4CC4)[nH]n3)ncn2)c1` (stereo not drawn) [Example 33], the inhibition at 1 µM is 103%.

On to `Clc1cccc(C2CCCN2c2cc(Nc3cc(C4CC4)[nH]n3)ncn2)c1` (stereo not drawn) [Example 34], for which the inhibition at 1 µM was determined as 101%.

On to `Cc1ccccc1C1CCCN1c1cc(Nc2cc(C3CC3)[nH]n2)ncn1` (stereo not drawn) [Example 35], for which the inhibition at 1 µM came out at 92%.

Turning to `FC(F)(F)c1ccccc1C1CCCN1c1cc(Nc2cc(C3CC3)[nH]n2)ncn1` (stereo not drawn) [Example 36], the inhibition at 1 µM was found to be 93%.

Consider `COc1ccccc1C1CCCN1c1cc(Nc2cc(C3CC3)[nH]n2)ncn1` (stereo not drawn) [Example 37], for which the inhibition at 1 µM turned out to be 101%.

Regarding `Fc1ccccc1C1CCCN1c1cc(Nc2cc(C3CC3)[nH]n2)ncn1` (stereo not drawn) [Example 38], the inhibition at 1 µM amounted to 95%.

For the compound `Clc1ccccc1C1CCCN1c1cc(Nc2cc(C3CC3)[nH]n2)ncn1` (stereo not drawn) [Example 39], the inhibition at 1 µM came to 97%.

Regarding `CN(C)c1ccc(C2CCCN2c2cc(Nc3cc(C4CC4)[nH]n3)ncn2)cc1` (stereo not drawn) [Example 40], the inhibition at 1 µM was 102%.

In the case of `CN(C)c1cccc(C2CCCN2c2cc(Nc3cc(C4CC4)[nH]n3)ncn2)c1` (stereo not drawn) [Example 41], the inhibition at 1 µM was determined as 101%.

Turning to `Fc1cccc(F)c1C1CCCN1c1cc(Nc2cc(C3CC3)[nH]n2)ncn1` (stereo not drawn) [Example 42], the inhibition at 1 µM was 101%.

`Fc1ccc(C2CCCN2c2cc(Nc3cc(C4CC4)[nH]n3)ncn2)c(F)c1` (stereo not drawn) [Example 43]: the inhibition at 1 µM is 105%.

Take `Fc1ccc(F)c(C2CCCN2c2cc(Nc3cc(C4CC4)[nH]n3)ncn2)c1` (stereo not drawn) [Example 44]: the inhibition at 1 µM came out at 103%.

Consider `OC1CC(c2cc(F)ccc2F)N(c2cc(Nc3cc(C4CC4)[nH]n3)ncn2)C1` (stereo not drawn) [Example 45], for which the inhibition at 1 µM came out at 96%.

Take `Clc1ccc(C2CCCN2c2cc(Nc3cc(C4CC4)[nH]n3)ncn2)cc1Cl` (stereo not drawn) [Example 46]: the inhibition at 1 µM worked out at 100%.

`Cc1ccc(C2CCCN2c2ncnc(Nc3cc(C4CC4)[nH]n3)c2C#N)cc1` (stereo not drawn) [Example 47]: the inhibition at 1 µM is -6%.

Consider `Fc1ccc(C2CCCN2c2ncnc(Nc3cc(C4CC4)[nH]n3)c2F)cc1` (stereo not drawn) [Example 48], for which the inhibition at 1 µM was 51%.

As for `Fc1ccc(C2CCCN2c2cc(Nc3cc(C4CCC4)[nH]n3)ncn2)cc1` (stereo not drawn) [Example 49], the inhibition at 1 µM stood at 101%.

Regarding `C/C=C/c1cc(Nc2cc(N3CCCC3c3ccc(F)cc3)ncn2)n[nH]1` (stereo not drawn) [Example 50], the inhibition at 1 µM was 99%.

Consider `Fc1ccc(C2CCCN2c2cc(Nc3cc(-c4ccco4)[nH]n3)ncn2)cc1` (stereo not drawn) [Example 51], for which the inhibition at 1 µM stood at 79%.

Regarding `Fc1ccc(C2CCCN2c2cc(Nc3cc(-c4ccccn4)[nH]n3)ncn2)cc1` (stereo not drawn) [Example 52], the inhibition at 1 µM came to 30%.

As for `CC(C)Oc1cc(Nc2cc(N3CCCC3c3ccccc3Cl)ncn2)n[nH]1` (stereo not drawn) [Example 53], the inhibition at 1 µM came out at 96%.

As for `Clc1ccccc1C1CCCN1c1cc(Nc2cc(C3CCCO3)[nH]n2)ncn1` (stereo not drawn) [Example 54], the inhibition at 1 µM was 70%.

Take `CC(C)(C)OC(=O)N1CCC(c2cc(Nc3cc(N4CCCC4c4ccccc4Cl)ncn3)n[nH]2)CC1` (stereo not drawn) [Example 55]: the inhibition at 1 µM was found to be 6%.

Regarding `Clc1ccccc1C1CCCN1c1cc(Nc2cc(-c3ccco3)[nH]n2)ncn1` (stereo not drawn) [Example 56], the inhibition at 1 µM came to 47%.

For the compound `Fc1ccc(Nc2cc(N3CCCC3c3ccc(F)cc3)ncn2)cc1` (stereo not drawn) [Example 57], the inhibition at 1 µM stood at 44%.

As for `N#Cc1cnc(Nc2cc(N3CCCC3c3ccc(F)cc3)ncn2)s1` (stereo not drawn) [Example 58], the inhibition at 1 µM was determined as 7%.

As for `CC(C)n1cc(Nc2cc(N3CCCC3c3ccc(F)cc3)ncn2)cn1` (stereo not drawn) [Example 59], the inhibition at 1 µM is 0%.

Take `Fc1ccc(C2CCCN2c2cc(Nc3n[nH]c4ccccc34)ncn2)cc1` (stereo not drawn) [Example 60]: the inhibition at 1 µM worked out at 79%.

Consider `CN1CCN(c2ccc(Nc3cc(N4CCCC4c4ccc(F)cc4)ncn3)nc2)CC1` (stereo not drawn) [Example 61], for which the inhibition at 1 µM was -12%.

Consider `Fc1ccc(C2CCN2c2cc(Nc3cc(C4CC4)[nH]n3)ncn2)cc1` (stereo not drawn) [Example 62], for which the inhibition at 1 µM was 105%.

On to `c1ccc(C2CCCCN2c2cc(Nc3cc(C4CC4)[nH]n3)ncn2)cc1` (stereo not drawn) [Example 63], for which the inhibition at 1 µM came out at 99%.

For `c1ccc(C2COCCN2c2cc(Nc3cc(C4CC4)[nH]n3)ncn2)cc1` (stereo not drawn) [Example 64], the inhibition at 1 µM worked out at 85%.

Turning to `CN1CCN(c2cc(Nc3cc(C4CC4)[nH]n3)ncn2)C(c2ccccc2)C1` (stereo not drawn) [Example 65], the inhibition at 1 µM was 79%.

With `Cc1cc(Nc2cc(N3CCCC3c3ccc(Cl)cc3)ncn2)n[nH]1` (stereo not drawn) [Example 66], the inhibition at 1 µM came out at 95%.

For `CCCc1cc(Nc2cc(N3CCCC3c3ccc(Cl)cc3)ncn2)n[nH]1` (stereo not drawn) [Example 67], the inhibition at 1 µM worked out at 99%.

Turning to `Nc1nc(Nc2cc(C3CC3)[nH]n2)cc(N2CCCC2c2ccc(F)cc2)n1` (stereo not drawn) [Example 71], the inhibition at 1 µM was determined as 100%.

As for `Fc1ccc(C2CCCN2c2ncnc(Nc3cc(C4CC4)[nH]n3)n2)cc1` (stereo not drawn) [Example 73], the inhibition at 1 µM was 100%.

For the compound `Fc1ccc(C2CCCN2c2ncnc(Nc3cc(C4CC4)[nH]n3)n2)c(F)c1` (stereo not drawn) [Example 74], the inhibition at 1 µM amounted to 100%.

Turning to `Clc1ccc(C2CCCN2c2ncnc(Nc3cc(C4CC4)[nH]n3)n2)cc1` (stereo not drawn) [Example 75], the inhibition at 1 µM was 100%.
